Reference: US10633419B2, “Immunomodulators” (BRISTOL-MYERS SQUIBB COMPANY, priority 2014, dated 2020)
Positions of bridges follow the written chain, without caps; N, C: chain ends. Non-standard residues stand in square brackets, D forms with d. Residues, ends and D or L forms follow the SMILES beside them. *: point of attachment. X12 = O=C(O)CCCCCCCCCCCCCCCCCCC(=O)N[C@@H](CCC(=O)NCCCOCCOCCOCCCN*)C(=O)O; Trp(1-CH2COOH) = N[C@@H](Cc1cn(CC(=O)O)c2ccccc12)C(=O)O; NH(CH2)14COOH = O=C(O)CCCCCCCCCCCCCCN*; Hyp = O=C(O)[C@@H]1C[C@@H](O)CN1; NMeF = CN[C@@H](Cc1ccccc1)C(=O)O; NMeE = CN[C@@H](CCC(=O)O)C(=O)O; NMeNle = CCCC[C@H](NC)C(=O)O; NMeA = CN[C@@H](C)C(=O)O; Pra = C#CC[C@H](N)C(=O)O; Aun = NCCCCCCCCCCC(=O)O; Dab = NCC[C@H](N)C(=O)O; Dap = NC[C@H](N)C(=O)O; Sar = CNCC(=O)O

What follows are molecules tested against T1, PD-L1 (Homo sapiens, UniProt Q9NZQ7) (assay: PD-1/PD-L1 Homogenous Time-Resolved Fluorescence (HTRF) binding assay (PD-1-Ig/PD-L1-His)). Details: inhibition of PD-1-Ig binding to PD-L1-TVMV-His; value given as range class; read-out: HTRF IC50.
T1 construct: hPDL1(19-239)-TVMV-His; made in house; host or cells: HEK293T
In short: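 HTRF competition in dPBS with 0.1% BSA and 0.05% Tween-20: 20 nM PD-1-Ig added after 15 min compound pre-incubation with 10 nM PD-L1-His, then another 15 min. Signal (665/620 nm) after 30 min with APC anti-His (20 nM) and Eu anti-Ig (1 nM).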

T1 sequence (Q9NZQ7 with tags, fused parts or gaps): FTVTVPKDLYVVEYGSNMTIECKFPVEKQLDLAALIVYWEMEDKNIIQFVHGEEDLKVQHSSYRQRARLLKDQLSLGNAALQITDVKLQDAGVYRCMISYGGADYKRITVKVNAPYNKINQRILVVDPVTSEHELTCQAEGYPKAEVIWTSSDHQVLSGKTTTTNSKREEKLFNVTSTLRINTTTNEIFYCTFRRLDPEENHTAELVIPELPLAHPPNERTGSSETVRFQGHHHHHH

Question: How did the IC50 turn out when `CCCC[C@H]1C(=O)N(C)CC(=O)N[C@@H](CC(=O)O)C(=O)N[C@@H](C(C)C)C(=O)N(C)[C@@H](Cc2ccccc2)C(=O)N[C@@H](Cc2ccc(O)cc2)C(=O)N(C)[C@@H](CCC(=O)O)C(=O)N[C@@H](Cc2c[nH]c3ccccc23)C(=O)N[C@@H](Cc2ccc(O)cc2)C(=O)N[C@@H](CC(C)C)C(=O)N[C@H](C(=O)NCC(=O)NCC(=O)NCC(=O)N[C@@H](CCCCN)C(N)=O)CSCC(=O)N[C@@H](Cc2ccccc2)C(=O)N(C)[C@@H](Cc2ccccc2)C(=O)N1C` [Example 3619] ({CH2CO}-F[NMeF][NMeNle][Sar]DV[NMeF]Y[NMeE]WYLCGGGK-NH2; thioether N-13) was run?
Answer: Its IC50 is 0.3 to 9.9 nM.

Question: For `CCCC[C@H]1C(=O)N(C)[C@@H](CCCC)C(=O)N[C@@H](CC(C)C)C(=O)N[C@H](C(=O)N[C@@H](CC(=O)O)C(=O)N[C@@H](CC(=O)NCCCOCCOCCOCCCNC(=O)CC[C@H](NC(=O)CCCCCCCCCCCCCCCCCCC(=O)O)C(=O)O)C(=O)O)CSCC(=O)N[C@@H](Cc2ccc(O)cc2)C(=O)N(C)[C@@H](C)C(=O)N[C@@H](CC(N)=O)C(=O)N2CCC[C@H]2C(=O)N[C@@H](CN)C(=O)N[C@@H](CC(C)C)C(=O)N2C[C@H](O)C[C@H]2C(=O)N[C@@H](Cc2c[nH]c3ccccc23)C(=O)N[C@@H](CCN)C(=O)N[C@@H](Cc2cn(CC(=O)O)c3ccccc23)C(=O)N1C` [Example 11252] ({CH2CO}-Y[NMeA]NP[Dap]L[Hyp]W[Dab][Trp(1-CH2COOH)][NMeNle][NMeNle]LCDD(X12)-OH; thioether N-14), which IC50 is on record?
Answer: The IC50 was 10 to 99 nM.

Question: How did the IC50 turn out when `CCCC[C@H]1C(=O)N(C)[C@@H](CCCC)C(=O)N[C@@H](CC(C)C)C(=O)N[C@H](C(=O)NCCCCCCCCCCCCCCC(=O)O)CSCC(=O)N[C@@H](Cc2ccc(O)cc2)C(=O)N(C)[C@@H](C)C(=O)N[C@@H](CC(N)=O)C(=O)N2CCC[C@H]2C(=O)N[C@@H](CN)C(=O)N[C@@H](CC(C)C)C(=O)N2C[C@H](O)C[C@H]2C(=O)N[C@@H](Cc2c[nH]c3ccccc23)C(=O)N[C@@H](CCN)C(=O)N[C@@H](Cc2cn(CC(=O)O)c3ccccc23)C(=O)N1C` [Example 11196] ({CH2CO}-Y[NMeA]NP[Dap]L[Hyp]W[Dab][Trp(1-CH2COOH)][NMeNle][NMeNle]LC-{NH(CH2)14COOH}; thioether N-14) was run?
Answer: Its IC50 is 10 to 99 nM.

Question: `CCCC[C@H]1C(=O)N(C)[C@@H](CCCC)C(=O)N[C@@H](CC(C)C)C(=O)N[C@H](C(=O)NCCCCCCCCCCC(=O)N[C@@H](CC(=O)O)C(=O)O)CSCC(=O)N[C@@H](Cc2ccc(O)cc2)C(=O)N(C)[C@@H](C)C(=O)N[C@@H](CC(N)=O)C(=O)N2CCC[C@H]2C(=O)N[C@@H](Cc2cnc[nH]2)C(=O)N[C@@H](CCC(=O)O)C(=O)N2C[C@H](O)C[C@H]2C(=O)N[C@@H](Cc2c[nH]c3ccccc23)C(=O)N[C@@H](CCN)C(=O)N[C@@H](Cc2c[nH]c3ccccc23)C(=O)N1C` [Example 11129] ({CH2CO}-Y[NMeA]NPHE[Hyp]W[Dab]W[NMeNle][NMeNle]LC[Aun]D-OH; thioether N-14) was tested. Which IC50 did it give?
Answer: Its IC50 is 10 to 99 nM.

Question: How did the IC50 turn out when `C#CC[C@H](NC(=O)[C@@H]1CSCC(=O)N[C@@H](Cc2ccc(O)cc2)C(=O)N(C)[C@@H](C)C(=O)N[C@@H](CC(N)=O)C(=O)N2CCC[C@H]2C(=O)N[C@@H](CN)C(=O)N[C@@H](CC(C)C)C(=O)N2C[C@H](O)C[C@H]2C(=O)N[C@@H](Cc2c[nH]c3ccccc23)C(=O)N[C@@H](CCN)C(=O)N[C@@H](Cc2cn(CC(=O)O)c3ccccc23)C(=O)N(C)[C@@H](CCCC)C(=O)N(C)[C@@H](CCCC)C(=O)N[C@@H](CC(=O)O)C(=O)N1)C(=O)O` [INT130AH] ({CH2CO}-Y[NMeA]NP[Dap]L[Hyp]W[Dab][Trp(1-CH2COOH)][NMeNle][NMeNle]DC[Pra]-OH; thioether N-14) was run?
Answer: Its IC50 is 0.3 to 9.9 nM.
